The values below come from PMC8125234, “Cardiolipin Stabilizes and Increases Catalytic Efficiency of Carnitine Palmitoyltransferase II and Its Variants S113L, P50H, and Y479F” (International Journal of Molecular Sciences, 2021).

One experiment concerns the target T1, CPT II variant S113L (Homo sapiens, UniProt P23786, S113L).
T1 construct: made in house; host or cells: Escherichia coli BL21Gold DE
T1 sequence (P23786 26-658 S113L): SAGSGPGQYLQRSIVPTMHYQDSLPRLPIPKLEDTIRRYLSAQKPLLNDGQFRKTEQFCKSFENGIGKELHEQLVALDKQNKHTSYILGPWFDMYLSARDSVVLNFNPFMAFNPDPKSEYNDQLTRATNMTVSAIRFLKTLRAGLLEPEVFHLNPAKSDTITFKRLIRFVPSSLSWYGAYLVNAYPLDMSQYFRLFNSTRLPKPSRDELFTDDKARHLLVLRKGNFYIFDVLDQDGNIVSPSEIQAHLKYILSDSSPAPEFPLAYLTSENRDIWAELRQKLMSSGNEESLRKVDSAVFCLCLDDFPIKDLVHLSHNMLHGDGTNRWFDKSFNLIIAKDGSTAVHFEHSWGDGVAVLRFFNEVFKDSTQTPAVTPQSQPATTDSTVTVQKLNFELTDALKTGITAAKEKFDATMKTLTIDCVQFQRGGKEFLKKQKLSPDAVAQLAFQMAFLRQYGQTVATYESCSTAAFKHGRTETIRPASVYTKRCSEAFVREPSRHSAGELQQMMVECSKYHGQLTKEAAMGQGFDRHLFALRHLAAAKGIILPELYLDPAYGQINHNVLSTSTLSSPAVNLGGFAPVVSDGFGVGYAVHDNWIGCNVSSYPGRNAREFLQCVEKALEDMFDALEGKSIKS
The experiment is described as follows: Influence of CL on the enzyme activity. The class given is biochemical. The settings on record: for Maximal Enzymatic Activity: w/o CL = 100. The procedure: (§1) Then, the effect of CL, as a potential stabilizing agent, was investigated in the activity assay. Therefore, 0.1 mg/mL recombinant enzyme was incubated with various concentrations of CL (0.125, 0.25 or 0.5 mM) or buffer at 30 and 42 °C, respectively.
(§2) Before activity measurements, the storage buffer of the enzymes was replaced with assay buffer (50 mM KH2PO4, 120 mM KCl, 1 mM EDTA-Na4) using vivaspin turbo 4 tubes (Satorius Stedim biotech GmbH, Göttingen, Germany) at 4 °C. The pH of assay buffer was adjusted with KOH to 7.4. The storage buffer was diluted at least 1:500 in assay buffer. In addition, before each experimental set up, the protein samples were centrifuged at 16,000× g for 5 min at 4 °C to remove any micro-aggregates. After that, the protein concentration was determined using bicinchoninic acid (BCA) protein assay kit (Thermo Fisher Scientific GmbH, Berlin, Germany). The enzyme activity of recombinant CPT II was performed following Rufer et al. with modifications described elsewhere. […] After pre-conditioning the mixture to 25 °C for 2 min, the reaction was started by adding 15 nM of recombinant enzyme. The reverse reaction of CPT II was detected with the enzyme activity assay. CPT II catalyzed the transfer of fatty acid residue from Pal-CoA to L-carnitine with release of CoA and Pal-carnitine. The released CoA was then detected by the reaction of the free thiol group with DTNB, forming 5-mercapto-(2-nitrobenzoic acid). This compound has a molar extinction coefficient of 13,600 M^−1 cm^−1 at a wavelength of 410 nm, and its formation was followed spectroscopically. […] The slope of the progress curve was used to determine the reaction velocity.
(§3) The purified enzymes were incubated at different temperatures (30, 37, 40 and 42 °C) using a protein concentration of 1 mg/mL during the incubation periods to investigated the half-lives of WT and variants. 0.1 mg/mL enzyme was incubated with or without CL (0.125, 0.25 and 0.5 mM) in the assay buffer. The enzyme activities were determined by adding 15 nM of pre-incubated enzyme according to Section 4.3 after various incubation times up to 60 min at an assay temperature of 25 °C. Experiments were done at least three times independently as double determination.

For experiment [1], the target named is T2, CPT II variant P50H (Homo sapiens, UniProt P23786, P50H).
T2 construct: made in house; host or cells: Escherichia coli BL21Gold DE
T2 sequence (P23786 26-658 P50H): T1 sequence (P23786 26-658 S113L) with P25H, L88S
The experiment is described as follows: Influence of CL on the enzyme activity. The experiment is classed as biochemical. The settings on record: for Maximal Enzymatic Activity: w/o CL = 100. The procedure:
as §1, §2, §3

The target in experiment [2] is T2, CPT II variant P50H. Kind of experiment: nanoDSF protein stability in presence of CL or β-OG. The experiment is classed as binding. The procedure: NanoDSF is a standard method for the investigation of the folding/unfolding of proteins and the interaction of proteins with effectors/ligands/substrates
The protein stability was investigated applying nano differential scanning fluorimetry (nanoDSF) using a protein concentration of 1 mg/mL in assay buffer. […] The heating rate has been set to 1 °C per min. A heating ramp from 15 to 95 °C was determined. The nanoDSF data were obtained using a Prometheus NT.48 device. First derivatives were calculated using PR.ThermControl software (NanoTemper Technologies GmbH, Munich, Germany). Experiments were performed at least three times independently as double determination.
(Differential scanning fluorimetry follows unfolding on heating by fluorescence.)

The test system of experiment [3] is recombinant human CPT II WT. The arrangement: method as in PMID 13534673. The settings on record: cited from earlier work.

Changes are numbered by the printed parent chain.

With Cardiolipin [CL], the “Increase of the enzymatic activity by CL” value on CPT II variant S113L and on CPT II variant P50H [1] was “marginal effect” each time. The “Maximal Enzymatic Activity” value is on record as 114.5 ± 8.3% at CPT II variant S113L (0.25 mM CL), 98.7 ± 5.1% at CPT II variant S113L (0.5 mM CL), 113.0 ± 7.6% at CPT II variant P50H [1] (0.25 mM CL) and 94.5 ± 6.4% on CPT II variant P50H [1] (0.5 mM CL). The “Enzymatic activity in the presence of CL” value on CPT II variant S113L (before incubation periods) is recorded as 115%; on CPT II variant P50H [1] (before incubation periods), 113%. In addition, on CPT II variant P50H [1] (incubation at 42 °C), the “Effect of CL on maintenance of enzyme activity” value was “almost no effect”. Further, the “Increase of ΔTM-value due to the addition of CL” value at CPT II variant P50H [2] (0.25 mM CL) was “+13 °C”. Also, the “TM in Buffer with 0.25 mM CL” value on CPT II variant P50H [2] (1 mg/mL protein) amounted to 40.2 ± 0.7 °C. Besides, the “∆TM in Buffer with 0.25 mM CL” value at CPT II variant P50H [2] (reference TM of WT in buffer (ΔTM = 0 °C)) worked out at 3.3 ± 0.1 °C. Besides, the “Effect of CL on enzyme activity” value in experiment [3] is “activity-increasing effect”.
